Measurements as given in patent publication US20080004272A1, “Compositions and methods for modulating gated ion channels” (PainCeptor Pharma Corporation, priority 2006, published 2008).

Molecular target: T1, ASIC1a (Homo sapiens, UniProt P78348)
T1 sequence (P78348 1-528): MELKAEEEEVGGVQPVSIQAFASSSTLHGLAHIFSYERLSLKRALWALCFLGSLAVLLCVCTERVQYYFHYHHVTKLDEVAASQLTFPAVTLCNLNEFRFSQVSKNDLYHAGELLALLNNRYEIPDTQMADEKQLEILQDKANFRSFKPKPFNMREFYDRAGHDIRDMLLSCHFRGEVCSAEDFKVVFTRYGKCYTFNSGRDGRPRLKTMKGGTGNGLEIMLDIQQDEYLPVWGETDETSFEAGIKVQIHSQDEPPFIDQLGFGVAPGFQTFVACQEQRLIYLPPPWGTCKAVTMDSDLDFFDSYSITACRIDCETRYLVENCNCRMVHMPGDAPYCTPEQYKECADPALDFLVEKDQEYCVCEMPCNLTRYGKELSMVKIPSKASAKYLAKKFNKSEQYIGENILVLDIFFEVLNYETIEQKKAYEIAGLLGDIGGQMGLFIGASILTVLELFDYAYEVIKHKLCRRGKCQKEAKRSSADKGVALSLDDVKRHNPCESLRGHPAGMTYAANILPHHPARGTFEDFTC
Assay: Calcium imaging of MES-induced calcium response (FLIPR)
Format: cell-based
Set-up: host or cells: HEK293
Details: ASIC1a expressing HEK293 cells, MES-induced calcium response; read-out: IC50 (FLIPR)
Description: […] Confluency of cells should be 80-90% on day of plating. Cells are rinsed with 10 ml of PBS and cells are re-suspended by addition of culture medium and trituration with a 25 ml pipette.
The cells are seeded at a density of approximately 1×10^6 cells/ml (100 μl/well) in black-walled, clear bottom, 96-well plates pre-treated with 10 mg/l poly-D-lysin (75 μl/well for ≧30 min). Plated cells are allowed to proliferate for 24 h before loading with dye.
Fluo-4/AM (1 mg, Molecular Probes) is dissolved in 912 μl DMSO. The Fluo-4/AM stock solution (1 mM) is diluted with culture medium to a final concentration of 2 μM (loading solution).
The culture medium is aspirated from the wells, and 50 μl of the Fluo-4/AM loading solution is added to each well. The cells are incubated at 37° C. for 30 min.
Following the second wash, 100 μl modified Assay Buffer is added to each well and the fluorescence is measured in FLIPR™ or FlexStation™ (Molecular Devices, USA), or any other suitable equipment known to the skilled in the art.
Temperature: Room temperature (20-22° C.)
First addition: 50 μl test solution at a rate of 30 μl/sec and a starting height of […]
Second addition: 50 μl MES solution (20 mM, 5 mM final concentration) at a rate of 35 μl/sec and a starting height of 150 μl.
Reading intervals: pre-incubation−10 sec×7 and 3 sec×3 antagonist phase−3 sec×7 and 10 sec×12
Addition plates (compound test plate and MES plate) are placed on the right and left positions in the FLIPR tray, respectively. Cell plates are placed in the middle position and the ASIC1a program is effectuated. FLIPR will then take the appropriate measurements in accordance with the interval settings above. Fluorescence obtained after stimulation is corrected for the mean basal fluorescence (in modified Assay Buffer).
The MES-induced peak calcium response, in the presence of test substance, is expressed relatively to the MES response alone. Test substances that block the MES-induced calcium response are re-tested in triplicates.

Structure (SMILES) | IC50 [µM]
CN1CCc2c(-c3ccc(S(=O)(=O)N4CCOCC4)cc3)cc3c(c2C1)NC(=O)C3=NO [Compound 2, 8-methyl-5-[4-(morpholine-4-sulfonyl)-phenyl]-6,7,8,9-tetrahydro-1H-pyrrolo[3,2-h]isoquinoline-2,3-dione 3-oxime] | > 70
CN1CCc2c(-c3cccc(OC(F)(F)F)c3)cc3c(c2C1)NC(=O)/C3=N/O [Compound 51] | > 70
CC(=O)Nc1c([N+](=O)[O-])cc(-c2ccccc2)c2c1CN(C)CC2 [Compound 154] | > 70
C/C(=N\O)c1c2c(c(O)c3c1OCO3)CN(C)CC2 [Compound 57] | > 70
CCOC(=O)c1ccc(-c2cc3c(c4c2CCN(C)C4)NC(=O)C3=NO)cc1 [Compound 1, 4-(3-hydroxyimino-8-methyl-2-oxo-2,3,6,7,8,9-hexahydro-1H-pyrrolo[3,2-h]isoquinolin-5-yl)-benzoic acid ethyl ester] | > 70
CC(=O)c1ccccc1-c1cc2c(c3c1CCN(C)C3)NC(=O)/C2=N/O [Compound 32] | > 70
O=C(/C=N/O)Nc1ccc(-c2ccccc2)c2ccncc12 [Compound 152] | > 70
CN1CCc2c(-c3ccccc3OC(F)(F)F)cc3c(c2C1)NC(=O)/C3=N/O [Compound 53] | > 70
CCOC(=O)N1CCc2c(Br)ccc(NC(=O)CCl)c2C1 [Compound 145] | > 70
CN1CCc2c(-c3ccc(F)cc3F)cc3c(c2C1)NC(=O)/C3=N/O [Compound 50] | > 70
CC(=O)c1cccc(-c2cc3c(c4c2CCN(C)C4)NC(=O)/C3=N/O)c1 [Compound 47] | > 70
COc1c(F)cc(F)cc1-c1cc2c(c3c1CCN(C)C3)NC(=O)/C2=N/O [Compound 60] | > 70
CN1CCc2c(-c3ccccc3)ccc(NC(=O)CC(=O)O)c2C1 [Compound 153] | > 70
CN1CCc2c(-c3cccc4c3oc3ccccc34)cc3c(c2C1)NC(=O)/C3=N/O [Compound 58] | > 70
CN1CCc2c(-c3ccncc3)cc3c(c2C1)NC(=O)/C3=N/O [Compound 55] | > 70
CN1CCc2c(-c3cccc([N+](=O)[O-])c3)cc3c(c2C1)NC(=O)/C3=N\O [Compound 29] | > 70
CN1CCc2c(-c3cccc(N)c3)cc3c(c2C1)NC(=O)/C3=N/O [Compound 48] | > 70

Structure (SMILES) | IC50 [µM]
CN1CCc2c(-c3ccc(OC(F)(F)F)cc3)cc3c(c2C1)NC(=O)/C3=N/O [Compound 54] | > 70
CC(=O)c1ccc(-c2cc3c(c4c2CCN(C)C4)NC(=O)/C3=N/O)s1 [Compound 26] | > 70
O=C1Nc2c(cc(-c3ccccc3)c3c2CCCC3)/C1=N/O [Compound 114] | > 70
CN1CCc2c(cccc2-c2ccccc2)C1 [Compound 173] | > 70
CN1CCc2c(-c3cccc(C#N)c3)cc3c(c2C1)NC(=O)/C3=N\O [Compound 28] | > 70
CC(=O)N1CCc2c(-c3ccc(Cl)cc3)cc3c(c2C1)NC(=O)C3=NO [Compound 70, 8-Acetyl-5-(4-chloro-phenyl)-6,7,8,9-tetrahydro-1H-pyrrolo[3,2-h]isoquinoline-2,3-dione 3-oxime] | > 70
CCOc1cccc(-c2cc3c(c4c2CCN(C)C4)NC(=O)/C3=N\O)c1 [Compound 25] | 40 to 60
CS(=O)(=O)N1CCc2c(-c3ccc(Cl)cc3)cc3c(c2C1)NC(=O)C3=NO [Compound 71, 5-(4-Chloro-phenyl)-8-methanesulfonyl-6,7,8,9-tetrahydro-1H-pyrrolo[3,2-h]isoquinoline-2,3-dione 3-oxime] | > 70
CN1CCc2c(-c3cccc(C(F)(F)F)c3)cc3c(c2C1)NC(=O)/C3=N/O [Compound 49] | > 70
CN1CCc2c(-c3ccccc3)cc3c(c2C1)NC(=O)/C3=N/OC1O[C@H](CO)[C@@H](O)[C@H](O)[C@H]1O (stereo partly drawn) [Compound 59] | > 70
CN1CCc2c(-c3ccsc3C=O)cc3c(c2C1)NC(=O)/C3=N/O [Compound 56] | > 70
Cc1cc(F)ccc1-c1cc2c(c3c1CCN(C)C3)NC(=O)/C2=N/O [Compound 52] | > 70
CC(C)Oc1cccc(-c2cc3c(c4c2CCN(C)C4)NC(=O)/C3=N\O)c1 [Compound 46] | 40 to 60
CN1CCc2c(-c3ccc(C(=O)N(C)C)cc3)cc3c(c2C1)NC(=O)C3=NO [Compound 3, 4-(3-Hydroxyimino-8-methyl-2-oxo-2,3,6,7,8,9-hexahydro-1H-pyrrolo[3,2-h]isoquinolin-5-yl)-N,N-dimethyl-benzamide] | > 70
CN1CCc2c(-c3cccnc3)cc3c(c2C1)NC(=O)/C3=N/O [Compound 27] | > 70
COc1c2c(c(C(C)=O)c3c1OCO3)CCN(C)C2 [Compound 33] | > 70
CN1CCc2c(-c3cccc(O)c3)cc3c(c2C1)NC(=O)/C3=N/O [Compound 31] | > 70

More lines, now with the values ahead:

IC50 [µM] | Structure (SMILES)
40 to 60 | CN1CCc2c(-c3cc(C(F)(F)F)cc(C(F)(F)F)c3)cc3c(c2C1)NC(=O)/C3=N\O [Compound 23]
< 10 | C#CN1C(=O)C(=NO)c2cc(-c3ccccc3)c3c(c21)CN(CC)CC3 [Compound 72, 8-Ethyl-1-ethynyl-5-phenyl-6,7,8,9-tetrahydro-1H-pyrrolo[3,2-h]isoquinoline-2,3-dione 3-oxime]
20 to 30 | CO/N=C1/C(=O)Nc2c1cc(-c1ccccc1OC)c1c2CN(C)CC1 [Compound 21]
< 10 | CN1CCc2c(-c3cc(F)ccc3F)cc3c(c2C1)NC(=O)/C3=N/O [Compound 39]
< 25 | CN1CCc2c(-c3ccc(S(=O)(=O)N4CCCCC4)cc3)cc3c(c2C1)NC(=O)C3=NO [Compound 5, 8-Methyl-5-[4-(piperidine-1-sulfonyl)-phenyl]-6,7,8,9-tetrahydro-1H-pyrrolo[3,2-h]isoquinoline-2,3-dione 3-oxime]
< 10 | CN1CCc2c(-c3cccc(F)c3)cc3c(c2C1)NC(=O)/C3=N\O [Compound 36]
< 10 | CN1CCc2c(-c3ccc(F)c(Cl)c3)cc3c(c2C1)NC(=O)/C3=N\O [Compound 14]
35 to 45 | CN1CCc2c(-c3ccccc3Cl)cc3c(c2C1)NC(=O)/C3=N/O [Compound 22]
< 10 | COc1ncccc1-c1cc2c(c3c1CCN(C)C3)NC(=O)/C2=N/O [Compound 45]
< 20 | CN1CCc2c(-c3cccc(F)c3F)cc3c(c2C1)NC(=O)/C3=N/O [Compound 68]
< 10 | CN1CCc2c(-c3ccc(F)c(F)c3)cc3c(c2C1)NC(=O)/C3=N\O [Compound 16]
< 10 | COc1cc(F)ccc1-c1cc2c(c3c1CCN(C)C3)NC(=O)/C2=N/O [Compound 42]
< 20 | CN1CCc2c(-c3ccoc3)cc3c(c2C1)NC(=O)/C3=N/O [Compound 69]
< 10 | CN1CCc2c(-c3cc(F)cc(F)c3)cc3c(c2C1)NC(=O)/C3=N\O [Compound 17]
< 10 | Cc1cc(-c2cc3c(c4c2CCN(C)C4)NC(=O)/C3=N/O)ccc1F [Compound 15]
< 10 | CCc1ccccc1-c1cc2c(c3c1CCN(C)C3)NC(=O)/C2=N/O [Compound 40]
< 10 | CN1CCc2c(-c3cccc(Cl)c3)cc3c(c2C1)NC(=O)/C3=N\O [Compound 35]
< 10 | CN1CCc2c(-c3ccccc3Oc3ccccc3)cc3c(c2C1)NC(=O)/C3=N/O [Compound 44]
< 10 | CN1CCc2c(-c3ccccc3F)cc3c(c2C1)NC(=O)/C3=N/O [Compound 19]
< 10 | CCOc1ccccc1-c1cc2c(c3c1CCN(C)C3)NC(=O)/C2=N/O [Compound 37]
< 10 | COc1ccccc1-c1cc2c(c3c1CCN(C)C3)NC(=O)/C2=N\O [Compound 34]
< 20 | CCN1CCc2c(-c3ccccc3)cc3c(c2C1)N(CC(=O)OC)C(=O)C3=NO [Compound 73, (8-Ethyl-3-hydroxyimino-2-oxo-5-phenyl-2,3,6,7,8,9-hexahydro-pyrrolo[3,2-h]isoquinolin-1-yl)-acetic acid methyl ester]
< 10 | COCCOc1ccccc1-c1cc2c(c3c1CCN(C)C3)NC(=O)/C2=N/O [Compound 38]
